The results in this text go back to ChEMBL document CHEMBL5126643, “Design and Characterization of Novel Small Molecule Activators of Excitatory Amino Acid Transporter 2” (ACS Med Chem Lett, 2022).

The target of data set [1] is Excitatory amino acid transporter 2 (Homo sapiens, UniProt P43004). Nature of the data set: Activation of human EAAT2 overexpressed in MDCK cells assessed as glutamate reuptake incubated for 5 mins by LCMS assay. The format is cell-based.
A short description of data set [2]: Lipophilicity, log P of the compound. The format is physicochemical. To be noted: octanol/water.
The nature of data set [3]: Cmax in Wistar rat brain at 5 mg/kg, iv measured up to 24 hrs by LC-MS/MS analysis. It is filed as ADME, organism-based. Details: dose 5 mg/kg, time < 24 hrs, route iv.
A short description of data set [4]: Tmax in Wistar rat brain at 5 mg/kg, iv measured up to 24 hrs by LC-MS/MS analysis. The format is ADME, organism-based.
Data set [5] is described as follows: AUC in Wistar rat brain at 5 mg/kg, iv measured up to 24 hrs by LC-MS/MS analysis. The format is ADME, organism-based. Details: time < 24 hrs, dose 5 mg/kg, route iv. To be noted: in vivo.
The nature of data set [6]: Half life in Wistar rat brain at 5 mg/kg, iv measured up to 24 hrs by LC-MS/MS analysis. The format is ADME, organism-based.
The nature of data set [7]: Cmax in Wistar rat plasma at 5 mg/kg, iv measured up to 24 hrs by LC-MS/MS analysis. It is filed as ADME, organism-based. Details: dose 5 mg/kg, time < 24 hrs, route iv.
The nature of data set [8]: Tmax in Wistar rat plasma at 5 mg/kg, iv measured up to 24 hrs by LC-MS/MS analysis. It is filed as ADME, organism-based.
Data set [9] in a line: AUC in Wistar rat plasma at 5 mg/kg, iv measured up to 24 hrs by LC-MS/MS analysis. Details: dose 5 mg/kg, time < 24 hrs, route iv. The format is ADME, organism-based. To be noted: in vivo.
A short description of data set [10]: Half life in Wistar rat plasma at 5 mg/kg, iv measured up to 24 hrs by LC-MS/MS analysis. The format is ADME, organism-based.
The nature of data set [11]: Cmax in Wistar rat brain at 10 mg/kg, ip measured up to 24 hrs by LC-MS/MS analysis. The format is ADME, organism-based. Details: time < 24 hrs, dose 10 mg/kg, route ip.
Data set [12] in a line: Tmax in Wistar rat brain at 10 mg/kg, ip measured up to 24 hrs by LC-MS/MS analysis. The format is ADME, organism-based.
Data set [13] is described as follows: AUC in Wistar rat brain at 10 mg/kg, ip measured up to 24 hrs by LC-MS/MS analysis. It is filed as ADME, organism-based. Details: dose 10 mg/kg, time < 24 hrs, route ip. Particulars: in vivo.
A short description of data set [14]: Half life in Wistar rat brain at 10 mg/kg, ip measured up to 24 hrs by LC-MS/MS analysis. It is filed as ADME, organism-based.
Data set [15] is described as follows: Cmax in Wistar rat plasma at 10 mg/kg, ip measured up to 24 hrs by LC-MS/MS analysis. The format is ADME, organism-based. Details: dose 10 mg/kg, time < 24 hrs, route ip.
Data set [16] in a line: Tmax in Wistar rat plasma at 10 mg/kg, ip measured up to 24 hrs by LC-MS/MS analysis. It is filed as ADME, organism-based.
A short description of data set [17]: AUC in Wistar rat plasma at 10 mg/kg, ip measured up to 24 hrs by LC-MS/MS analysis. Details: time < 24 hrs, dose 10 mg/kg, route ip. To be noted: in vivo. It is filed as ADME, organism-based.
Data set [18] is described as follows: Half life in Wistar rat plasma at 10 mg/kg, ip measured up to 24 hrs by LC-MS/MS analysis. The format is ADME, organism-based.
A short description of data set [19]: Cmax in Wistar rat brain at 10 mg/kg, po measured up to 24 hrs by LC-MS/MS analysis. Details: dose 10 mg/kg, time < 24 hrs, route po. It is filed as ADME, organism-based.
Data set [20] in a line: Tmax in Wistar rat brain at 10 mg/kg, po measured up to 24 hrs by LC-MS/MS analysis. It is filed as ADME, organism-based.
Data set [21] in a line: AUC in Wistar rat brain at 10 mg/kg, po measured up to 24 hrs by LC-MS/MS analysis. To be noted: in vivo. Details: time < 24 hrs, dose 10 mg/kg, route po. It is filed as ADME, organism-based.
The nature of data set [22]: Cmax in Wistar rat plasma at 10 mg/kg, po measured up to 24 hrs by LC-MS/MS analysis. Details: dose 10 mg/kg, time < 24 hrs, route po. It is filed as ADME, organism-based.
Data set [23] is described as follows: Tmax in Wistar rat plasma at 10 mg/kg, po measured up to 24 hrs by LC-MS/MS analysis. It is filed as ADME, organism-based.
Data set [24] in a line: AUC in Wistar rat plasma at 10 mg/kg, po measured up to 24 hrs by LC-MS/MS analysis. The format is ADME, organism-based. Details: time < 24 hrs, dose 10 mg/kg, route po. To be noted: in vivo.
Data set [25] can be described thus: Half life in Wistar rat plasma at 10 mg/kg, po measured up to 24 hrs by LC-MS/MS analysis. The format is ADME, organism-based.
A short description of data set [26]: Bioavailability in Wistar rat plasma at 10 mg/kg, ip measured up to 24 hrs by LC-MS/MS analysis. It is filed as ADME, organism-based.
Data set [27] can be described thus: Oral bioavailability in Wistar rat plasma at 10 mg/kg measured up to 24 hrs by LC-MS/MS analysis. The format is ADME, organism-based.
Data set [28] is described as follows: AUC in CD-1 mouse brain at 10 mg/kg, ip measured up to 8 hrs by LC-MS/MS analysis. It is filed as ADME, organism-based. Details: time < 8 hrs, dose 10 mg/kg, route ip. To be noted: in vivo.
The nature of data set [29]: Primary phase half life in CD-1 mouse brain at 10 mg/kg, ip measured up to 8 hrs by LC-MS/MS analysis. Particulars: read-out: alphat1/2 (converted). It is filed as ADME, organism-based.
Data set [30] is described as follows: Cmax in CD-1 mouse brain at 10 mg/kg, ip measured up to 8 hrs by LC-MS/MS analysis. The format is ADME, organism-based. Details: dose 10 mg/kg, time < 8 hrs, route ip.
A short description of data set [31]: Tmax in CD-1 mouse brain at 10 mg/kg, ip measured up to 8 hrs by LC-MS/MS analysis. It is filed as ADME, organism-based.
Data set [32] in a line: AUC in CD-1 mouse plasma at 10 mg/kg, ip measured up to 8 hrs by LC-MS/MS analysis. Details: time < 8 hrs, dose 10 mg/kg, route ip. It is filed as ADME, organism-based. Particulars: in vivo.
Data set [33] in a line: Primary phase half life in CD-1 mouse plasma at 10 mg/kg, ip measured up to 8 hrs by LC-MS/MS analysis. The format is ADME, organism-based. Particulars: read-out: alphat1/2 (converted).
Data set [34] in a line: Cmax in CD-1 mouse plasma at 10 mg/kg, ip measured up to 8 hrs by LC-MS/MS analysis. The format is ADME, organism-based. Details: dose 10 mg/kg, time < 8 hrs, route ip.
The nature of data set [35]: Tmax in CD-1 mouse plasma at 10 mg/kg, ip measured up to 8 hrs by LC-MS/MS analysis. It is filed as ADME, organism-based.
The nature of data set [36]: Half life in Wistar rat brain at 10 mg/kg, po measured up to 24 hrs by LC-MS/MS analysis. The format is ADME, organism-based.

pEC50: −log10 of the molar value.

Usually pEC50 stands for the EC50 on a negative log10 scale, so that one unit is a factor of ten. For orientation: logP means the decadic logarithm of the partition coefficient of the neutral form, usually between octanol and water. The low end stands for lower lipophilicity, the high end for higher lipophilicity. As usually defined, the Cmax is the peak of the concentration-time curve. Broadly, the Tmax is the time from dosing to the highest level. As usually defined, the bioavailability is dose-corrected exposure relative to a reference, in per cent. Read a low bioavailability as little systemic uptake.

Sequence of Excitatory amino acid transporter 2 (P43004 whole entry): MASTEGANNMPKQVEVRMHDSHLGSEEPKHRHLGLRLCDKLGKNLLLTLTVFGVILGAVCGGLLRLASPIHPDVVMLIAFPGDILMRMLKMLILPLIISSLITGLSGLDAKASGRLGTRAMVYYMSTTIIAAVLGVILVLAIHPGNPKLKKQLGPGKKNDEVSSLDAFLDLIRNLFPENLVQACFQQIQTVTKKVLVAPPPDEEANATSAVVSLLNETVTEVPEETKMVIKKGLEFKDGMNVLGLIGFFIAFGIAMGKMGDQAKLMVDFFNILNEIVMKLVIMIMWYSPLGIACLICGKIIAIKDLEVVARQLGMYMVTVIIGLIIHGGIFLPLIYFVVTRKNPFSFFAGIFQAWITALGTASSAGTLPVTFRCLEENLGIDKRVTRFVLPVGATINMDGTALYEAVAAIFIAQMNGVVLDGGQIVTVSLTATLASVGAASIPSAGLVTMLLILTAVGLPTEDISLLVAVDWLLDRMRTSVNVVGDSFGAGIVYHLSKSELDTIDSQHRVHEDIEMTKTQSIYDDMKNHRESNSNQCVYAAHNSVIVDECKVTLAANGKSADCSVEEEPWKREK

Turning to `Cc1ccccc1CSc1ccc(-c2ccccn2)nn1`, the negative-log EC50 (pEC50) in data set [1] is 5.74.

Take `COc1ccc2[nH]c(=O)c(C(c3nnnn3CCc3ccccc3)N3CCN(C4CCCCC4)CC3)cc2c1` (stereo not drawn): in [2], the logP was over 6.

Take `COc1ccc(NC(=O)C(=O)N2CCN(c3ccccc3)CC2)cc1`: the Cmax in [3] was found to be 371 ng/g; in data set [7] it was 567 ng/g; in [11], 204 ng/g; in data set [15], 450 ng/g; in data set [19], 25 ng/g; in [22], 42.9 ng/g. For the same molecule, the time to peak (Tmax) stood at 0.5 h in data set [4]; 0.5 h in [8]; 0.5 h in data set [12]; 0.63 h in [16]; 1.38 h in data set [20]; 3.25 h in data set [23]. Further, the AUC in [5] stood at 443.23 ng·h/g; in data set [9], 919.43 ng·h/g; in [13] it was 429.85 ng·h/g; in data set [17], 1073.21 ng·h/g; in [21] it was 183 ng·h/g; in data set [24], 321.93 ng·h/g. The half-life in data set [6] is 1.52 h; in data set [10], 6.08 h; in data set [14] it was 2.26 h; in [18] it was 6.22 h; in [25], 5.34 h. The bioavailability was determined as 58.4% in data set [26] and 17.5% in data set [27].

With `COc1ccc2[nH]c(=O)c(C(c3nnnn3CCc3ccccc3)N3CCN(c4cccc(C(F)(F)F)c4)CC3)cc2c1` (stereo not drawn), the values for the AUC in data set [28] and in [32] were 86 ng·h/g and 1339 ng·h/g, respectively. The figures for the half-life in data set [29] and in data set [33] were 3.5 h and 3 h, respectively. Moreover, the Cmax in data set [30] was found to be 30 ng/mL; in [34], 717 ng/mL. The Tmax in data set [31] and in data set [35] was 0.5 h in each case. This molecule also showed a log partition coefficient (logP) in [2] of over 6.

On to `COc1ccc(NC(=O)C(=O)NCC(c2ccccc2)N2CCN(C)CC2)cc1` (stereo not drawn), for which the Cmax worked out at 1220 ng/g in data set [3]; 307 ng/g in data set [7]; 2460 ng/g in data set [11]; 262 ng/g in data set [15]; 1170 ng/g in data set [19]; 204 ng/g in [22]. Moreover, the Tmax in [4] was 0.5 h; in [8], 0.5 h; in data set [12], 0.5 h; in data set [16] it was 0.5 h; in data set [20], 0.88 h; in [23] it was 0.875 h. Moreover, the AUC in data set [5] is 1959.7 ng·h/g; in data set [9], 315.635 ng·h/g; in [13], 4414.35 ng·h/g; in data set [17], 536.768 ng·h/g; in [21] it was 2816.8 ng·h/g; in data set [24] it was 507.2 ng·h/g. Moreover, the half-life in [6] is 1.03 h; in data set [10] it was 0.651 h; in [14], 1.62 h; in data set [18] it was 1.02 h; in [36], 1.81 h; in data set [25], 4.76 h. Moreover, the values for the bioavailability in data set [26] and in data set [27] were 85% and 80.3%, respectively.

Turning to `CO/N=C(\C(=O)N[C@@H]1C(=O)N2C(C(=O)O)=C(CSc3nc(=O)c(=O)[nH]n3C)CS[C@H]12)c1csc(N)n1` [CEFTRIAXONE], in data set [1], the pEC50 was under 5.00.
